# Laboratory results as given in patent publication US20240060990A1, “SPATIAL SIGNALING NETWORKS FOR MULTIPLEXED DRUG RESPONSE MEASUREMENT AND MODELING” (Georgia Tech Research Corporation, priority 2022, published 2024).
# “Also recorded” adds a separate entry of the source.
# Experiments:
# [1] = system: HCC827-derived mouse xenografts; assay: Tumor growth of HCC827-derived xenografts in mice; assay type: in vivo; details: daily Osimertinib
# Mcl-1 = details: cited from earlier work
# p-EGFR (Y1068) = details: PC9 cells; cited from earlier work
# p-AKT/mTOR = assay: RapMPI (multiplexed PLA) PPI counts in HCC827 cells; assay type: cell-based, human; details: 100 nM, 12 h, 5 PPI dataset
# Method: (§1) Following that, the cells were then fixed and permeabilized with 1.6% formaldehyde in 1×PBS for 10 minutes at RT and 0.5% Triton X-100 for 10 minutes at RT, respectively. The cells were then blocked using a cell staining medium (CSM) containing 0.5% BSA, and 0.02% Sodium Azide in PBS. […] HCC827 cells were stained with p-ERK overnight followed by 1-hour incubation of secondary antibodies at RT, and 10 mins DAPI staining. The cells were then imaged at 40× magnification, and the intensity levels were analyzed. […] The coverslip was mounted to an acrylic holder for multiple cycles of staining.
# (§2) RapMPI on cell cultures: For single color detection, each coverslip prepared with cells was stained with multiple PPIs with one PPI per cycle. The cells were fixed, permeabilized, and then ready for the following staining steps: 1) block the sample with Duolink blocking solution; 2) incubate it with one pair of proteins, conjugated to one PLUS and one MINUS oligonucleotide at 4° C. overnight.
# (§3) PPI detection: PPI signals were detected using a custom algorithm leveraging a traditional image processing pipeline. More specifically, each PPI image was preprocessed as followed: images were first transformed using a top-hat filter of size 3 pixels to reduce the noise around PPI signals, then Laplacian of Gaussian images was used to detect bright local maxima as PPI signals. In 3D images, double detection of PPI was filtered out at the same position in consecutive Z stacks. After detecting all the PPI locations in 3D, PPI was observed within a 2.5-pixel radius (0.045 um) by creating a PPI neighborhood graph of radius threshold 2.5 pixels and getting all connected components in the graph. Finally, the mean position of the unique connected components in the graph was extracted as identified unique PPI signals in 3D.
# p-ERK/c-Myc = assay: as above; assay type: cell-based, human
# Method: as §1, §2, §3
# Bim/Tom20 = assay: RapMPI (multiplexed PLA) PPI counts in HCC827 cells, 9 PPI panel; assay type: cell-based, human; details: 12 hours, 9 PPI dataset
# Method: as §1, §2
# (§4) For multicolor detection, after permeabilization, the cells underwent the following steps: 1) block the sample with Duolink blocking solution; 2) incubate it with two pair of proteins, conjugated to one pair of oligonucleotides at 4° C. overnight. […] After imaging, the samples were incubated with DNase at a 1:50 dilution rate for 4 hours at RT, followed by 3 times 30% formamide washes and 3 times 1×PBS washes.
# as §3
# sox2/oct4 = assay: as above; assay type: cell-based, human; details: 12 hours, 9 PPI dataset
# Method: as §1, §2, §4, §3
# NF-κB/p-p90RSK = assay: as above; assay type: cell-based, human; details: 12 hours, 9 PPI dataset
# Method: as §1, §2, §4, §3
# cyclin D1/CDK4 = assay: as above; assay type: cell-based, human; details: 12 hours, 9 PPI dataset
# Method: as §1, §2, §4, §3
# p-EGFR (Y1173) = details: PC9 cells; cited from earlier work
# PC9 cells [2] = details: 0 to 10 nM, 3-day treatment; cited from earlier work
# PC9 cells [3] = assay: Cell survival: cell number on coverslip counted in ImageJ; assay type: cell-based, human
# Method: The cell survival was measured based on the cell number on the coverslip. […] The cells were stained with p-EGFR, and β-tubulin and three ROIs were imaged for each concentration at 40×. The cell number on each ROI was counted in ImageJ following the steps: import the Channel image, make binary, convert it to masks, analyze particles, and then choose “masks” under the “show” option.
# c-MYC = details: EGFRm-sensitive cells; cited from earlier work
structure (smiles),measurement,setting,value
C=CC(=O)Nc1cc(Nc2nccc(-c3cn(C)c4ccccc34)n2)c(OC)cc1N(C)CCN(C)C [Osimertinib],tumor,[1]; 5-day treatment,almost disappeared
same,tumor as treatment continued (acquired resistance),[1]; continued treatment,grew back and larger
same,xenograft growth,[1]; first week,effectively inhibited for the first week
same,Mcl-1 level,Mcl-1,downregulates Mcl-1
same,p-EGFR (Y1068) level,p-EGFR (Y1068),failed to alter the p-EGFR (Y1068)
same,p-AKT/mTOR interactions in the cytoplasm,p-AKT/mTOR,downregulated the p-AKT/mTOR pathway reducing the interactions in the cytoplasm
same,P-ERK/c-Myc interactions (PPI count),"p-ERK/c-Myc; 100 nM, 12 h, 5 PPI dataset",significantly increased interactions; also recorded: upregulation
same,p-ERK/c-Myc PPI,"p-ERK/c-Myc; 12 hours, 9 PPI dataset",effectively inhibited
same,interactions between Tom20 and Bim,Bim/Tom20,Reduced interactions
same,sox2/oct4 PPI,sox2/oct4,downregulation
same,NF-κB/p-p90RSK PPI,NF-κB/p-p90RSK,effectively inhibited
same,cyclin D1/CDK4 PPI,cyclin D1/CDK4,inhibitory effect
same,p-EGFR (Y1173) level,p-EGFR (Y1173),decreased the p-EGFR (Y1173) level
same,cell survival rate,PC9 cells [2],decreased as the concentration has increased from 0 to 10 nM; also recorded: decreased as the concentration was increased from 0 to 10-nM
same,"cell viability, higher vs lower drug concentrations",PC9 cells [3]; 48-hour treatment,further decreased the cell viability
same,number of cells adhering to the coverslips,"PC9 cells [3]; 48-hour treatment, 0, 20, 40, 60 nM",decreased as the drug concentration has increased; also recorded: reduced the number of adherent PC9 cells compared to untreated ones
same,c-MYC degradation,c-MYC,induce the degradation of c-MYC
